According to patent publication US9580390B2, “Indazole compounds as kinase inhibitors and method of treating cancer with same” (University Health Network, priority 2011, dated 2017):

How the values were obtained:
[1] = tested on: colon cancer cells (HCT116); test: Cancer cell line growth inhibition (SRB assay); assay type: cell-based; details: Homo sapiens, HCT-116; HCT116 colon cancer cells, SRB assay; read-out: Cancer Cell Line GI50 Range HCT116
Experimental: Breast cancer cells (MDA-MB-231), colon cancer cells (HCT116) and ovarian cancer cells (PA-1) were seeded (1000 to 4000 in 80 μl per well depending on the cell growth rate) into 96 well plates 24 hours before compound overlay. Compounds were prepared as 10 mM stock solutions in 100% DMSO which were diluted with DMEM (Dulbecco's Modified Eagle's Medium) cell growth Medium (Invitrogen, Burlington, ON, Canada) containing 10% FBS (Fetal Bovine Serum) to concentrations ranging from 50 nM to 250 μM. Aliquots (20 μl) from each concentration were overlaid to 80 μl of the pre-seeded cells in the 96 well plates to make final concentrations of 10 nM to 50 μM. The cells were cultured for 5 days before the Sulforhodamine B assay (SRB) was performed to determine the compound's cell growth inhibition activity.
Sulforhodamine B (purchased from Sigma, Oakville, ON, Canada) is a water-soluble dye that binds to the basic amino acids of the cellular proteins. Thus, colorimetric measurement of the bound dye provides an estimate of the total protein mass that is related to the cell number. the cells are fixed in situ by gently aspirating off the culture media and adding 50 μl ice cold 10% Trichloroacetic Acid (TCA) per well and incubate at 4° C. for 30-60 min. The plates are washed with H2O five times and allowed to air dry for 5 min. Addition of 50 μl 0.4% (w/v) SRB solution in 1% (v/v) acetic acid to each well and incubation for 30 min at RT completes the staining reaction. Following staining, plates are washed four times with 1% acetic acid to remove unbound dye and then allowed to air dry for 5 min. The stain is solubilized with 100 μl of 10 mM Tris pH 10.5 per well. Absorbance is read at 570 nm.
The percentage (%) of relative growth inhibition was calculated by comparing to DMSO treated only cells (100%). GI50's were determined for compounds with cytotoxic activity. The GI50 was calculated using GraphPad PRISM software (GraphPad Software, Inc., San Diego, Calif., USA).

[2] = tested on: ovarian cancer cells (PA-1); test: Cancer cell line growth inhibition (SRB assay); assay type: cell-based; details: PA-1 ovarian cancer cells, SRB assay; read-out: Cancer Cell Line GI50 Range PA-1

Row | SMILES | GI50 [1] | GI50 [2]
1 | CO[C@@H](C(=O)Nc1ccc2[nH]nc(-c3ccc(O[C@@H]4CCN(C)C[C@@H]4F)cc3)c2c1)c1ccccc1 (relative stereo) [Example A135, (R)-N-(3-(4-(((3S,4R)-3-fluoro-1-methylpiperidin-4-yl)oxy)phenyl)-1H-indazol-5-yl)-2-methoxy-2-phenylacetamide] | 100 to 500 nM | 100 to 500 nM
2 | CN1CCC(Oc2ccc(-c3n[nH]c4ccc(NC(=O)C5CCCc6ccccc65)cc34)cc2)CC1 (stereo not shown) [Example A18] | 100 to 500 nM | 100 to 500 nM
3 | CC[C@@H](NC(=O)c1ccc2[nH]nc(-c3ccc(OC4CCN(C)CC4)cc3)c2c1)c1cccs1 [Example A63, (R)-3-(4-((1-methylpiperidin-4-yl)oxy)phenyl)-N-(1-(thiophen-2-yl)propyl)-1H-indazole-5-carboxamide] | < 100 nM | –
4 | CN1CCN(Cc2ccc(-c3n[nH]c4ccc(NC(=O)C(c5ccsc5)N5CCCC5)cc34)cc2)CC1 (stereo not shown) [Example A67, N-(3-(4-((4-methylpiperazin-1-yl)methyl)phenyl)-1H-indazol-5-yl)-2-(pyrrolidin-1-yl)-2-(thiophen-3-yl)acetamide] | 100 to 500 nM | –
5 | O=C(Nc1ccc2[nH]nc(-c3ccc(NC4CCCCC4)cc3)c2c1)C(c1ccsc1)N1CCCC1 (stereo not shown) [Example A68, N-(3-(4-(cyclohexylamino)phenyl)-1H-indazol-5-yl)-2-(pyrrolidin-1-yl)-2-(thiophen-3-yl)acetamide] | > 500 nM | –
6 | O=C(Nc1ccc2[nH]nc(-c3ccc(NC4CCCC4)cc3)c2c1)C(c1ccsc1)N1CCCC1 (stereo not shown) [Example A70, N-(3-(4-(cyclopentylamino)phenyl)-1H-indazol-5-yl)-2-(pyrrolidin-1-yl)-2-(thiophen-3-yl)acetamide] | 100 to 500 nM | –
7 | CN1CCC(Oc2ccc(-c3n[nH]c4ccc(NC(=O)N5CCCc6ccccc65)cc34)cc2)CC1 [Example A73, N-(3-(4-((1-methylpiperidin-4-yl)oxy)phenyl)-1H-indazol-5-yl)-3,4-dihydroquinoline-1(2H)-carboxamide] | > 500 nM | –
8 | CN1CCC(Oc2ccc(-c3n[nH]c4ccc(C(=O)NCC(C)(C)N5CCOCC5)cc34)cc2)CC1 [Example A74, N-(2-methyl-2-morpholinopropyl)-3-(4-((1-methylpiperidin-4-yl)oxy)phenyl)-1H-indazole-5-carboxamide] | > 500 nM | –
9 | CN1CCC(Oc2ccc(-c3n[nH]c4ccc(C(=O)NCC(c5ccsc5)N5CCOCC5)cc34)cc2)CC1 (stereo not shown) [Example A75, 3-(4-((1-methylpiperidin-4-yl)oxy)phenyl)-N-(2-morpholino-2-(thiophen-3-yl)ethyl)-1H-indazole-5-carboxamide] | 100 to 500 nM | –
10 | CN1CCC(Oc2ccc(-c3n[nH]c4ccc(NC(=O)Nc5c(Cl)cccc5Cl)cc34)cc2)CC1 [Example A76, 1-(2,6-dichlorophenyl)-3-(3-(4-((1-methylpiperidin-4-yl)oxy)phenyl)-1H-indazol-5-yl)urea] | < 100 nM | –
11 | Cc1cc(C)c(NC(=O)Nc2ccc3[nH]nc(-c4ccc(OC5CCN(C)CC5)cc4)c3c2)c(Cl)c1 [Example A77, 1-(2-chloro-4,6-dimethylphenyl)-3-(3-(4-((1-methylpiperidin-4-yl)oxy)phenyl)-1H-indazol-5-yl)urea] | 100 to 500 nM | –
12 | CN(c1ccc(-c2n[nH]c3ccc(NC(=O)C(c4ccsc4)N4CCCC4)cc23)cc1)C1CCOCC1 (stereo not shown) [Example A78, N-(3-(4-(methyl(tetrahydro-2H-pyran-4-yl)amino)phenyl)-1H-indazol-5-yl)-2-(pyrrolidin-1-yl)-2-(thiophen-3-yl)acetamide] | < 100 nM | –
13 | C[C@H]1CCCN1[C@H](C(=O)Nc1ccc2[nH]nc(-c3ccc(N4CCOCC4)cc3)c2c1)c1cccs1 [Example A79, (R)-2-((S)-2-methylpyrrolidin-1-yl)-N-(3-(4-morpholinophenyl)-1H-indazol-5-yl)-2-(thiophen-2-yl)acetamide] | < 100 nM | –
14 | CN1CCC(Oc2ccc(-c3n[nH]c4ccc(NC(=O)C(c5ccsc5)N5CCCC5)cc34)cc2N)CC1 (stereo not shown) [Example A80, N-(3-(3-amino-4-((1-methylpiperidin-4-yl)oxy)phenyl)-1H-indazol-5-yl)-2-(pyrrolidin-1-yl)-2-(thiophen-3-yl)acetamide] | < 100 nM | –
15 | O=C(Nc1ccc2[nH]nc(-c3ccc(N4CCOCC4)cc3)c2c1)C(c1cccs1)N1CCCC1 (stereo not shown) [Example A82, N-(3-(4-morpholinophenyl)-1H-indazol-5-yl)-2-(pyrrolidin-1-yl)-2-(thiophen-2-yl)acetamide] | < 100 nM | < 100 nM
16 | O=C(Nc1ccc2[nH]nc(-c3ccc(N4CCC(O)CC4)cc3)c2c1)C(c1ccsc1)N1CCCCC1 (stereo not shown) [Example A83, N-(3-(4-(4-hydroxypiperidin-1-yl)phenyl)-1H-indazol-5-yl)-2-(piperidin-1-yl)-2-(thiophen-3-yl)acetamide] | < 100 nM | 100 to 500 nM

Row | SMILES | GI50 [1] | GI50 [2]
17 | O=C(NC(c1ccccc1)C1CC1)c1ccc2[nH]nc(-c3ccc(N4CCC(O)CC4)cc3)c2c1 (stereo not shown) [Example A84, N-(cyclopropyl(phenyl)methyl)-3-(4-(4-hydroxypiperidin-1-yl)phenyl)-1H-indazole-5-carboxamide] | < 100 nM | 100 to 500 nM
18 | CCc1cccc(CC)c1NC(=O)Nc1ccc2[nH]nc(-c3ccc(N4CCOCC4)cc3)c2c1 [Example A86, 1-(2,6-diethylphenyl)-3-(3-(4-morpholinophenyl)-1H-indazol-5-yl)urea] | < 100 nM | 100 to 500 nM
19 | COC(C(=O)Nc1ccc2[nH]nc(-c3ccc(N4CCC(O)CC4)cc3)c2c1)c1ccsc1 (stereo not shown) [Example A87, N-(3-(4-(4-hydroxypiperidin-1-yl)phenyl)-1H-indazol-5-yl)-2-methoxy-2-(thiophen-3-yl)acetamide] | 100 to 500 nM | 100 to 500 nM
20 | O=C(Nc1ccc2[nH]nc(-c3ccc(N4CCC(O)CC4)cc3)c2c1)C(c1cccs1)N1CCCC1 (stereo not shown) [Example A88, N-(3-(4-(4-hydroxypiperidin-1-yl)phenyl)-1H-indazol-5-yl)-2-(pyrrolidin-1-yl)-2-(thiophen-2-yl)acetamide] | < 100 nM | < 100 nM
21 | CN1CCOc2ccc(-c3n[nH]c4ccc(NC(=O)C(c5ccsc5)N5CCCC5)cc34)cc2C1 (stereo not shown) [Example A90, N-(3-(4-methyl-2,3,4,5-tetrahydrobenzo[f][1,4]oxazepin-7-yl)-1H-indazol-5-yl)-2-(pyrrolidin-1-yl)-2-(thiophen-3-yl)acetamide] | 100 to 500 nM | > 500 nM
22 | CN1CCN(C)c2ccc(-c3n[nH]c4ccc(NC(=O)C(c5ccsc5)N5CCCC5)cc34)cc2C1 (stereo not shown) [Example A93, N-(3-(1,4-dimethyl-2,3,4,5-tetrahydro-1H-benzo[e][1,4]diazepin-7-yl)-1H-indazol-5-yl)-2-(pyrrolidin-1-yl)-2-(thiophen-3-yl)acetamide] | > 500 nM | > 500 nM
23 | CN1CCC(Oc2cccc(-c3n[nH]c4ccc(NC(=O)C(c5ccsc5)N5CCCC5)cc34)c2)CC1 (stereo not shown) [Example A99, N-(3-(3-((1-methylpiperidin-4-yl)oxy)phenyl)-1H-indazol-5-yl)-2-(pyrrolidin-1-yl)-2-(thiophen-3-yl)acetamide] | > 500 nM | > 500 nM
24 | O=C(NC(c1ccccc1)C1CCC1)c1ccc2[nH]nc(-c3ccc(N4CCC(O)CC4)cc3)c2c1 (stereo not shown) [Example A100, N-(cyclobutyl(phenyl)methyl)-3-(4-(4-hydroxypiperidin-1-yl)phenyl)-1H-indazole-5-carboxamide] | < 100 nM | < 100 nM
25 | O=C(Nc1ccc2[nH]nc(-c3ccc(N4CCC(O)CC4)cc3)c2c1)C(c1ccccc1)C1CC1 (stereo not shown) [Example A103, 2-cyclopropyl-N-(3-(4-(4-hydroxypiperidin-1-yl)phenyl)-1H-indazol-5-yl)-2-phenylacetamide] | < 100 nM | < 100 nM
26 | O=C(NC(c1ccccc1)C1CC1)c1ccc2[nH]nc(-c3ccc(OC4CCN(CCO)CC4)cc3)c2c1 (stereo not shown) [Example A104, N-(cyclopropyl(phenyl)methyl)-3-(4-((1-(2-hydroxyethyl)piperidin-4-yl)oxy)phenyl)-1H-indazole-5-carboxamide] | < 100 nM | < 100 nM
27 | COCCN1CCC(Oc2ccc(-c3n[nH]c4ccc(NC(=O)[C@H](OC)c5ccccc5)cc34)cc2)CC1 [Example A107, (R)-2-methoxy-N-(3-(4-((1-(2-methoxyethyl)piperidin-4-yl)oxy)phenyl)-1H-indazol-5-yl)-2-phenylacetamide] | 100 to 500 nM | 100 to 500 nM
28 | CN1CCC(Oc2ccc(-c3n[nH]c4ccc(C(=O)NCc5ccccc5N5CCOCC5)cc34)cc2)CC1 [Example A108, 3-(4-(1-Methylpiperidin-4-yloxy)phenyl)-N-(2-morpholinobenzyl)-1H-indazole-5-carboxamide] | 100 to 500 nM | 100 to 500 nM
29 | CN1CCC(Oc2ccc(-c3n[nH]c4ccc(C(=O)NCc5ccccc5CN5CCOCC5)cc34)cc2)CC1 [Example A109, 3-(4-(1-Methylpiperidin-4-yloxy)phenyl)-N-(2-(morpholinomethyl)benzyl)-1H-indazole-5-carboxamide] | > 500 nM | 100 to 500 nM
30 | CC(C)(O)C1CCN(c2ccc(-c3n[nH]c4ccc(NC(=O)C(c5ccsc5)N5CCCC5)cc34)cc2)CC1 (stereo not shown) [Example A111, N-(3-(4-(4-(2-hydroxypropan-2-yl)piperidin-1-yl)phenyl)-1H-indazol-5-yl)-2-(pyrrolidin-1-yl)-2-(thiophen-3-yl)acetamide] | < 100 nM | < 100 nM
31 | CC(C)(O)C1CCN(c2ccc(-c3n[nH]c4ccc(C(=O)NC(c5ccccc5)C5CC5)cc34)cc2)CC1 (stereo not shown) [Example A112, N-(cyclopropyl(phenyl)methyl)-3-(4-(4-(2-hydroxypropan-2-yl)piperidin-1-yl)phenyl)-1H-indazole-5-carboxamide] | 100 to 500 nM | 100 to 500 nM
32 | CN1CCC(Oc2ccc(-c3n[nH]c4ccc(NC(=O)C(c5ccsc5)N5CCCC5)cc34)cc2N(C)C)CC1 (stereo not shown) [Example A113, N-(3-(3-(dimethylamino)-4-((1-methylpiperidin-4-yl)oxy)phenyl)-1H-indazol-5-yl)-2-(pyrrolidin-1-yl)-2-(thiophen-3-yl)acetamide] | < 100 nM | < 100 nM
